Experimental data as given in ChEMBL document CHEMBL4765295, “Synthesis, pharmacological profile and 2D-QSAR studies of curcumin-amino acid conjugates as potential drug candidates” (Eur J Med Chem, 2020).
Values joined by “and” are separate entries in the source; they are usually repeats but may differ in a detail not shown here. Equal values may be shown once.

System: Mus musculus
Experiment: Analgesic activity in albino mouse assessed as protection at 10 mg/kg, ip measured after 60 mins by hot plate test (reference value: 0 %)
Assay type: functional
Conditions: 1 h

Question: With `COc1cc(/C=C/C(=O)/C=C(O)/C=C/c2ccc(OC(=O)[C@@H](CCSC)NC(=O)OC(C)(C)C)c(OC)c2)ccc1OC(=O)[C@@H](CCSC)NC(=O)OC(C)(C)C` as the compound, how does the Activity read?
Answer: Its Activity is 60.2%.

System: Mus musculus
Experiment: Analgesic activity in albino mouse assessed protection against acetic acid-induced abdominal writhing at 10 mg/kg, ip pretreated for 1 hr followed by acetic acid challenge and measured starting 5 mins post acetic acid challenge for 10 mins relative to control (reference value: 0 %)
Assay type: functional
Conditions: time 75 min, 1.25 h

Question: For `COc1cc(/C=C/C(=O)/C=C(O)/C=C/c2ccc(OC(=O)[C@@H](CCSC)NC(=O)OC(C)(C)C)c(OC)c2)ccc1OC(=O)[C@@H](CCSC)NC(=O)OC(C)(C)C`, which Activity is on record?
Answer: Its Activity is 53.8%.

System: not listed separately
Experiment: Toxicity in albino mouse assessed as induction of toxic symptoms at 50 to 100 mg/kg, ip measured after 24 hrs
Assay type: organism-based
Conditions: in vivo, dose 50-100 mg/kg

Question: Which Activity does the source give for `COc1cc(/C=C/C(=O)/C=C(O)/C=C/c2ccc(OC(=O)[C@@H](CCSC)NC(=O)OC(C)(C)C)c(OC)c2)ccc1OC(=O)[C@@H](CCSC)NC(=O)OC(C)(C)C` here?
Answer: The Activity was “Non-Toxic”.

System: not listed separately
Experiment: Ulcerogenic activity in fasted albino mouse assessed as average severity of ulcers in gastric mucosa at 10 mg/kg, po for 3 days (reference value: 0)
Assay type: toxicity, organism-based
Conditions: in vivo, 72 h, time 3 day

Question: For `COc1cc(/C=C/C(=O)/C=C(O)/C=C/c2ccc(OC(=O)[C@@H](CCSC)NC(=O)OC(C)(C)C)c(OC)c2)ccc1OC(=O)[C@@H](CCSC)NC(=O)OC(C)(C)C`, which Activity is on record?
Answer: Its Activity is 0.

System: Rattus norvegicus
Experiment: Antiinflammatory activity in Wistar rat model of carrageenan-induced paw edema assessed as reduction in thickness of paw edema at 10 mg/kg, ip pretreated for 1 hr followed by carrageenan challenge and measured after 1 hr (reference value: 2.41 +/-0.05 mm)
Assay type: functional
Conditions: time 1 hr after carrageenan

Question: For `COc1cc(/C=C/C(=O)/C=C(O)/C=C/c2ccc(OC(=O)[C@@H](CCSC)NC(=O)OC(C)(C)C)c(OC)c2)ccc1OC(=O)[C@@H](CCSC)NC(=O)OC(C)(C)C`, which Activity is on record?
Answer: The Activity was 1.1 mm.

System: Mus musculus
Experiment: Analgesic activity in albino mouse assessed reduction in acetic acid-induced abdominal writhing by measuring writing reflex at 10 mg/kg, ip pretreated for 1 hr followed by acetic acid challenge and measured starting 5 mins post acetic acid challenge for 10 mins (reference value: 42.4 +/- 1.02)
Assay type: functional
Conditions: time 75 min, 1.25 h

Question: Which Activity does the source give for `COc1cc(/C=C/C(=O)/C=C(O)/C=C/c2ccc(OC(=O)[C@@H](CCSC)NC(=O)OC(C)(C)C)c(OC)c2)ccc1OC(=O)[C@@H](CCSC)NC(=O)OC(C)(C)C` here?
Answer: Its Activity is 19.6.

System: not listed separately
Experiment: Ulcerogenic activity in fasted albino mouse assessed as incidence of gastric ulceration at 10 mg/kg, po for 3 days (reference value: 0 %)
Assay type: toxicity, organism-based
Conditions: in vivo, 72 h, time 3 day

Question: For `COc1cc(/C=C/C(=O)/C=C(O)/C=C/c2ccc(OC(=O)[C@@H](CCSC)NC(=O)OC(C)(C)C)c(OC)c2)ccc1OC(=O)[C@@H](CCSC)NC(=O)OC(C)(C)C`, which Activity is on record?
Answer: The Activity was 0%.

System: Candida albicans
Experiment: Antifungal activity against Candida albicans incubated for 18 to 24 hrs by CLSI method
Assay type: functional
Conditions: time 18-24 hrs

Question: Which MIC does the source give for `COc1cc(/C=C/C(=O)/C=C(O)/C=C/c2ccc(OC(=O)[C@@H](CCSC)NC(=O)OC(C)(C)C)c(OC)c2)ccc1OC(=O)[C@@H](CCSC)NC(=O)OC(C)(C)C` here?
Answer: The MIC was 0.5 µg/mL and 0.602 µM.

System: Mus musculus
Experiment: Analgesic activity in albino mouse assessed as protection at 10 mg/kg, ip measured after 120 mins by hot plate test (reference value: 0 %)
Assay type: functional
Conditions: 2 h

Question: For `COc1cc(/C=C/C(=O)/C=C(O)/C=C/c2ccc(OC(=O)[C@@H](CCSC)NC(=O)OC(C)(C)C)c(OC)c2)ccc1OC(=O)[C@@H](CCSC)NC(=O)OC(C)(C)C`, which Activity is on record?
Answer: The Activity was 71%.

System: Pseudomonas aeruginosa
Experiment: Antibacterial activity against Pseudomonas aeruginosa ATCC 27853 incubated for 18 hrs by agar dilution assay
Assay type: functional
Conditions: not given

Question: Which MIC does the source give for `COc1cc(/C=C/C(=O)/C=C(O)/C=C/c2ccc(OC(=O)[C@@H](CCSC)NC(=O)OC(C)(C)C)c(OC)c2)ccc1OC(=O)[C@@H](CCSC)NC(=O)OC(C)(C)C` here?
Answer: Its MIC is 0.25 µg/mL and 0.301 µM.

System: Rattus norvegicus
Experiment: Antiinflammatory activity in Wistar rat model of carrageenan-induced paw edema assessed as reduction in thickness of paw edema at 10 mg/kg, ip pretreated for 1 hr followed by carrageenan challenge and measured after 3 hrs (reference value: 1.79 +/-0.07 mm)
Assay type: functional
Conditions: time 4 hrs

Question: For `COc1cc(/C=C/C(=O)/C=C(O)/C=C/c2ccc(OC(=O)[C@@H](CCSC)NC(=O)OC(C)(C)C)c(OC)c2)ccc1OC(=O)[C@@H](CCSC)NC(=O)OC(C)(C)C`, which Activity is on record?
Answer: Its Activity is 0.47 mm.

System: Mus musculus
Experiment: Analgesic activity in albino mouse assessed as forepaw licking/jumping latency time at 10 mg/kg, ip measured after 60 mins by hot plate test (reference value: 3.42 +/- 0.03 sec)
Assay type: functional
Conditions: 1 h

Question: For `COc1cc(/C=C/C(=O)/C=C(O)/C=C/c2ccc(OC(=O)[C@@H](CCSC)NC(=O)OC(C)(C)C)c(OC)c2)ccc1OC(=O)[C@@H](CCSC)NC(=O)OC(C)(C)C`, which Time is on record?
Answer: The Time was 5.48 s.

System: Mus musculus
Experiment: Analgesic activity in albino mouse assessed protection against acetic acid-induced abdominal writhing at 10 mg/kg, ip pretreated for 1 hr followed by acetic acid challenge and measured starting 5 mins post acetic acid challenge for 10 mins relative to indomethacin
Assay type: functional
Conditions: time 75 min, 1.25 h

Question: Which Activity does the source give for `COc1cc(/C=C/C(=O)/C=C(O)/C=C/c2ccc(OC(=O)[C@@H](CCSC)NC(=O)OC(C)(C)C)c(OC)c2)ccc1OC(=O)[C@@H](CCSC)NC(=O)OC(C)(C)C` here?
Answer: Its Activity is 87.3%.

System: not listed separately
Experiment: Ulcerogenic activity in fasted albino mouse assessed as average number of ulcers in gastric mucosa at 10 mg/kg, po for 3 days (reference value: 0)
Assay type: toxicity, organism-based
Conditions: in vivo, 72 h, time 3 day

Question: For `COc1cc(/C=C/C(=O)/C=C(O)/C=C/c2ccc(OC(=O)[C@@H](CCSC)NC(=O)OC(C)(C)C)c(OC)c2)ccc1OC(=O)[C@@H](CCSC)NC(=O)OC(C)(C)C`, which Activity is on record?
Answer: The Activity was 0.

System: Rattus norvegicus
Experiment: Anti-inflammatory activity in Wistar rat assessed as inhibition of carrageenan-induced paw edema at 10 mg/kg, ip pretreated for 1 hr followed by carrageenan challenge and measured after 4 hr relative to control (reference value: 0.00 +/-0.4 %)
Assay type: functional
Conditions: time 5 hrs

Question: For `COc1cc(/C=C/C(=O)/C=C(O)/C=C/c2ccc(OC(=O)[C@@H](CCSC)NC(=O)OC(C)(C)C)c(OC)c2)ccc1OC(=O)[C@@H](CCSC)NC(=O)OC(C)(C)C`, which inhibition in vivo at 10 mg/kg is on record?
Answer: Its inhibition in vivo at 10 mg/kg is 89%.

System: Rattus norvegicus
Experiment: Anti-inflammatory activity in Wistar rat assessed as inhibition of carrageenan-induced paw edema at 10 mg/kg, ip pretreated for 1 hr followed by carrageenan challenge and measured after 2 hr relative to control (reference value: 0.00 +/-0.03 %)
Assay type: functional
Conditions: time 3 hrs

Question: With `COc1cc(/C=C/C(=O)/C=C(O)/C=C/c2ccc(OC(=O)[C@@H](CCSC)NC(=O)OC(C)(C)C)c(OC)c2)ccc1OC(=O)[C@@H](CCSC)NC(=O)OC(C)(C)C` as the compound, how does the inhibition in vivo at 10 mg/kg read?
Answer: The inhibition in vivo at 10 mg/kg was 69%.

System: Mus musculus
Experiment: Analgesic activity in albino mouse assessed as forepaw licking/jumping latency time at 10 mg/kg, ip measured after 120 mins by hot plate test (reference value: 2.62 +/- 0.06 sec)
Assay type: functional
Conditions: 2 h

Question: Which Time does the source give for `COc1cc(/C=C/C(=O)/C=C(O)/C=C/c2ccc(OC(=O)[C@@H](CCSC)NC(=O)OC(C)(C)C)c(OC)c2)ccc1OC(=O)[C@@H](CCSC)NC(=O)OC(C)(C)C` here?
Answer: Its Time is 4.48 s.
